The record followed here is ChEMBL document CHEMBL5257019, “An Overview of Severe Acute Respiratory Syndrome-Coronavirus (SARS-CoV) 3CL Protease Inhibitors: Peptidomimetics and Small Molecule Chemotherapy” (J Med Chem, 2016).

In data set [1] the target is T1, Replicase polyprotein 1ab (Severe acute respiratory syndrome coronavirus 2, UniProt P0DTD1). Put plainly: Inhibition of SARS-CoV-2 3CL protease using 2-aminobenzoyl-SVTLQSG-Tyr(NO2)-R as substrate.
Data set [2] has as its target T1, Replicase polyprotein 1ab. As to the kind of experiment: Inhibition of SARS-CoV-2 3CL protease using Dabcyl-Leu-Ala-Gln-Ala-Val-Arg-Ser-Ser-Ser-Arg-Edans as substrate.
A short description of data set [3]: Inhibition of SARS-CoV 3CL protease using 2-aminobenzoyl-SVTLQSG-Tyr(NO2)-R as substrate. Details: species or system Severe acute respiratory syndrome-related coronavirus.
In data set [4] the target is Replicase polyprotein 1ab (Severe acute respiratory syndrome coronavirus 2) (UniProt P0DTD1). As to the kind of experiment: Inhibition of SARS-CoV-2 3CL protease at 100 uM relative to control.
The target of a further data set is Cytochrome P450 2D6 (Homo sapiens, UniProt P10635). As to the kind of experiment: Inhibition of CYP2D6 (unknown origin). In kind it is ADME.
Cytochrome P450 2D6, sequence (P10635 whole entry): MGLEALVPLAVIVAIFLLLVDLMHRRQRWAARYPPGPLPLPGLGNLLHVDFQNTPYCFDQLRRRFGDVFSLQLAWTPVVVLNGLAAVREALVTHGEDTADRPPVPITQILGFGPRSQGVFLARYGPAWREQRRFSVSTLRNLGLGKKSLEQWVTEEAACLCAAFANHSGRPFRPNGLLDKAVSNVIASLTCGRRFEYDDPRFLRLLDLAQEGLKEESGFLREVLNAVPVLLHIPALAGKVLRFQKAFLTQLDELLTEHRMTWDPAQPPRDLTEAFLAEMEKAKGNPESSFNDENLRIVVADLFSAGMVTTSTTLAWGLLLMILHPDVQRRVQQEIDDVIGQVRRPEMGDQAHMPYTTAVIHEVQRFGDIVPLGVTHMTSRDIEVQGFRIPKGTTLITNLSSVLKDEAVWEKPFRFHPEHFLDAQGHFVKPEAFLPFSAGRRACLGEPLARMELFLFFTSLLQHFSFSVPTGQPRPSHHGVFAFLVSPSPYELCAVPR
A short description of data set [5]: Plasma protein binding in rat assessed as unbound fraction. In kind it is ADME.
The target in another data set is T2, Cytochrome P450 1A2 (Homo sapiens, UniProt P05177).
T2 sequence (P05177 whole entry): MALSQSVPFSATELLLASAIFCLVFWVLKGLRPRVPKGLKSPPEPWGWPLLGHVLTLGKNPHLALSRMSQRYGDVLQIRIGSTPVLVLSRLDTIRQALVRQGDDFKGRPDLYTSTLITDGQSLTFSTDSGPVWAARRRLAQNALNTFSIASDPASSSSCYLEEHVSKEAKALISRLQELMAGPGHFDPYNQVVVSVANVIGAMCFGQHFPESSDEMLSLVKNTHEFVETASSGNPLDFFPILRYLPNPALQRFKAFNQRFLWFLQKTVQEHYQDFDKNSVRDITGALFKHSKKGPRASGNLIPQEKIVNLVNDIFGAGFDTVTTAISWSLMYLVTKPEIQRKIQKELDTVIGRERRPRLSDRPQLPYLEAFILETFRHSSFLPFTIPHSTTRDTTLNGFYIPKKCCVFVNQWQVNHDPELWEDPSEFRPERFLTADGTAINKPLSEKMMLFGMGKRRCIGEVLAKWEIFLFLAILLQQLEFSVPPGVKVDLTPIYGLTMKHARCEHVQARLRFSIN
Put plainly: Inhibition of CYP1A2 (unknown origin). The format is ADME.

Data set [6] in a line: Plasma protein binding in human assessed as unbound fraction. The format is ADME.
Another data set concerns the target Cytochrome P450 2C9 (Homo sapiens, UniProt P11712). As to the kind of experiment: Inhibition of CYP2C9 (unknown origin). In kind it is ADME.
A further data set has as its target Cytochrome P450 3A4 (Homo sapiens, UniProt P08684). As to the kind of experiment: Inhibition of CYP3A4 (unknown origin). In kind it is ADME.
Data set [7] addresses T1, Replicase polyprotein 1ab. As to the kind of experiment: Inhibition of N terminal his tagged SARS-CoV-2 3CL protease by FRET assay.
Data set [8] addresses T1, Replicase polyprotein 1ab. As to the kind of experiment: Inhibition of SARS-CoV-2 3CL protease by FRET assay.
Data set [9] addresses T1, Replicase polyprotein 1ab. Put plainly: Inhibition of SARS-CoV-2 3CL protease using Dabcyl-KTSAVLQSGFRKME-Edans as substrate assessed as inhibition constant by flurogenic assay.
Data set [10] deals with Replicase polyprotein 1ab (Severe acute respiratory syndrome coronavirus 2) (UniProt P0DTD1). As to the kind of experiment: Inhibition of SARS-CoV-2 3CL protease assessed as ratio of Kinact/Ki.

The structures appear in SMILES notation.

Cytochrome P450 2C9, sequence (P11712 whole entry): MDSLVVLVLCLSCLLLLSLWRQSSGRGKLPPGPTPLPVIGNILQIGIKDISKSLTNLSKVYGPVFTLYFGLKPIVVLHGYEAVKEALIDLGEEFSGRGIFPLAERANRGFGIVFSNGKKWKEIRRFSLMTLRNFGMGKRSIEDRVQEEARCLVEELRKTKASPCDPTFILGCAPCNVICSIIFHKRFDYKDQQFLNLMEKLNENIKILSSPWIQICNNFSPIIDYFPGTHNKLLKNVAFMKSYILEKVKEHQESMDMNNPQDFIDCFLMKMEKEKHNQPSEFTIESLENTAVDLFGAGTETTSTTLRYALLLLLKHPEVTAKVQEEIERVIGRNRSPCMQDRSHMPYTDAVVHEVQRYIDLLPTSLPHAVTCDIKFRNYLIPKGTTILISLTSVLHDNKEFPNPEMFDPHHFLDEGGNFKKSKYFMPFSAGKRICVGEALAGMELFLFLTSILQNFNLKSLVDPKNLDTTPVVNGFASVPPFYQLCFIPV
Cytochrome P450 3A4, sequence (P08684 whole entry): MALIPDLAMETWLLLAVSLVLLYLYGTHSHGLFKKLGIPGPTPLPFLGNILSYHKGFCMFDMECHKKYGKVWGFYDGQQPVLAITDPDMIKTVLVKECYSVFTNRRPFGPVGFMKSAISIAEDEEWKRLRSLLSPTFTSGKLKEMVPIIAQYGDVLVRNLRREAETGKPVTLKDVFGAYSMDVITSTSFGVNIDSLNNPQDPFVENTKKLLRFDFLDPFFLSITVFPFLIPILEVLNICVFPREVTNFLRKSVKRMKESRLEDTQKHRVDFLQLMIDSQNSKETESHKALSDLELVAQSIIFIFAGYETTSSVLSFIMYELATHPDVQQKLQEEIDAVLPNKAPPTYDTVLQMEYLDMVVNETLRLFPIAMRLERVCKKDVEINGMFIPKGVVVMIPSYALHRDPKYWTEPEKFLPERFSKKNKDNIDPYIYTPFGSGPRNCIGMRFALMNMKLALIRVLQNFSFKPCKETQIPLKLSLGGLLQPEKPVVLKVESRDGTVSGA

Take `COC(=O)c1cc2c(O)cc(C(F)(F)F)cc2o1`: in [1], half-maximal inhibition (IC50) required 4.3 µM.
Regarding `O=C(O)c1ccc(/N=C/c2c(O)ccc3c2C2CCCCC2O3)cc1` (stereo not drawn), the EC50 (usually the concentration giving half of the maximal effect) in data set [2] turned out to be 23 µM.
On to `OCC1C(COCc2ccccc2)CC1n1cnc2c(Cl)ncnc21` (stereo not drawn), for which half-maximal inhibition in data set [3] (IC50) required 14.5 µM.
`CC(=O)N[C@H](C(=O)N[C@H](C(=O)N[C@@H](CC(C)C)C(=O)N[C@@H](C[C@@H]1CCNC1=O)C(=O)c1cccs1)[C@@H](C)O)C(C)C`: the inhibition (in general, how much of the control response was suppressed) in data set [4] worked out at 23%.
On the same count and under the same terms, the same measure for `CC(=O)N[C@H](C(=O)N[C@H](C(=O)N[C@@H](CC(C)C)C(=O)N[C@@H](Cc1ccccc1)C(=O)Cn1[nH]c(=O)c2ccccc2c1=O)[C@@H](C)OCc1ccccc1)C(C)C`: 72%.
Regarding `Cn1ccc(CN(C(=O)Cn2nnc3ccccc32)c2ccc(NC(=O)C3CC3)cc2)c1`, the IC50 (commonly the midpoint of a concentration-inhibition curve) at Cytochrome P450 2D6 worked out at 8.4 µM; on Cytochrome P450 1A2 it was 7.7 µM; against Cytochrome P450 2C9, 7.2 µM; at Cytochrome P450 3A4 it was 4.6 µM. The fraction unbound (usually the share of the substance not bound to proteins or other matrix) in data set [5] was found to be 0.106; in data set [6] it was 0.048.
On to `O=C(Oc1cncc(Cl)c1)c1cccs1`, for which, in [7], the midpoint of inhibition, the IC50, lay at 0.5 µM.
`O=c1c(OC[C@H]2O[C@@H](O)[C@H](O)[C@@H](O)[C@H]2O)c(-c2ccc(O)c(O)c2)oc2cc(O)cc(O)c12` came in with an IC50 in data set [8] of 42.8 µM.
In [1], `Cc1cc2cc(CN(CCc3ccccc3C)C(=O)NCc3ccccc3)c(=O)[nH]c2cc1C` had a half-maximal inhibitory concentration (IC50) of 17.2 µM.
In the case of `O=C(On1nnc2ccccc21)c1ccc2[nH]ccc2c1`, the Ki (commonly a dissociation constant, usually derived from enzyme kinetics or from competition with a known ligand) in data set [9] came out at 0.0075 µM.
Consider `CC(C)(C)NC(=O)C(c1cccnc1)N(C(=O)c1ccco1)c1ccc(C(C)(C)C)cc1` (stereo not drawn), for which the half-inhibitory concentration (IC50) at Cytochrome P450 2D6 was above 30 µM; against Cytochrome P450 1A2, above 30 µM; against Cytochrome P450 2C9 it was 9.1 µM. Besides, the fraction unbound was found to be 0.026 in data set [5] and 0.033 in data set [6].
On to `O=C(CSc1nc(C2CCCCC2)nc2ccccc12)NCc1ccco1`, for which half-maximal inhibition in [1] (IC50) required 18.2 µM.
Compound `O=C(Oc1cncc(Cl)c1)c1cc2ccccc2[nH]1` returned an IC50 in data set [7] of 0.065 µM.
Regarding `CCOC(=O)[C@@H]1OC1C(=O)N(CCC(N)=O)NC(=O)[C@H](Cc1ccccc1)NC(=O)[C@H](CC(C)C)NC(=O)OCc1ccccc1` (stereo partly drawn), in [10], the Ratio came out at 1900 M/s.
